Measurements published in ChEMBL document CHEMBL3244391, “Antiviral activity of aliphatic nucleoside analogues: structure-function relationship” (1979).

The compounds below were run on Vesicular stomatitis virus (assay: Antiviral activity against Vesicular stomatitis virus infected in rabbit primary kidney cells assessed as inhibition of viral cytopathogenicity after 2 days).
Format: functional
In the case of `Nc1ncnc2c1ncn2C[C@@H](O)CO`, the MID is reported as 300 µg/mL. Compound `OC[C@@H](O)Cn1cnc2c(O)ncnc21` has an MID of over 400 µg/mL. `O=c1ccn(C[C@H](O)CO)c(=O)[nH]1` gave an MID of 400 µg/mL. `Cc1cn(C[C@H](O)CO)c(=O)[nH]c1=O` showed an MID of over 400 µg/mL. For `Cc1cn(C[C@@H](O)CO)c(=O)[nH]c1=O`, the MID was over 400 µg/mL. Work on `Cc1c[nH]c(=O)n(C[C@H](O)CO)c1=O` yielded an MID of over 400 µg/mL. With `NCCn1cnc2c(N)ncnc21` the MID was over 400 µg/mL. Work on `CC(=O)OC[C@H](Cn1cnc2c(N)ncnc21)OC(C)=O` yielded an MID of 300 µg/mL. With `Nc1ncnc2c1ncn2CC[C@H](O)CO` the MID was 100 µg/mL. `Nc1ncnc2c1ncn2C[C@@H](O)[C@@H](O)CO` gave an MID of 300 µg/mL. With `Nc1ncnc2c1ncn2C[C@H](O)[C@H](O)CO` the MID was 100 µg/mL. With `Nc1ncnc2c1ncn2C[C@@H](O)[C@H](O)CO` the MID was 300 µg/mL. `Nc1ncnc2c1ncn2C[C@H](O)[C@@H](O)CO` showed an MID of over 400 µg/mL. `O=c1ccn(CC[C@H](O)CO)c(=O)[nH]1` was tested, and the MID was over 400 µg/mL. `O=c1ccn(C[C@@H](O)[C@H](O)CO)c(=O)[nH]1` was tested, and the MID was 400 µg/mL. `Nc1ncnc2c1ncn2C(CO)CO` showed an MID of 300 µg/mL. `Nc1ncnc2c1ncn2CCCO` showed an MID of 200 µg/mL. In the case of `Nc1ncnc2c1ncn2CCO`, the MID is reported as over 400 µg/mL. Work on `Nc1ncnc2c1ncn2CC(O)CO` (racemic) yielded an MID of 20 µg/mL. `Nc1nc(O)c2c(ncn2CC(O)CO)n1` (racemic) was tested, and the MID was over 400 µg/mL. With `Nc1ncnc2c1ncn2CCC(O)CO` (racemic) the MID was 200 µg/mL. Work on `Nc1ncnc2c1ncn2CCC(O)CCO` (racemic) yielded an MID of over 400 µg/mL. `Nc1nc(N)c2ncn(CC(O)CO)c2n1` (racemic) was tested, and the MID was over 400 µg/mL. Compound `CSc1nc(N)c2ncn(CC(O)CO)c2n1` (racemic) has an MID of over 400 µg/mL. `Nc1ncnc2c1nc(O)n2CC(O)CO` (racemic) gave an MID of over 400 µg/mL. `Nc1ncnc2c1nc(S)n2CC(O)CO` (racemic) was tested, and the MID was over 400 µg/mL. Work on `CNc1ncnc2c1ncn2CC(O)CO` (racemic) yielded an MID of over 400 µg/mL. `CN(C)c1ncnc2c1ncn2CC(O)CO` (racemic) was tested, and the MID was over 400 µg/mL. `OCC(O)Cn1cnc2c(S)ncnc21` (racemic) gave an MID of over 400 µg/mL. With `Nc1nc2c(ncn2CC(O)CO)c(=O)[nH]1` (racemic) the MID was over 400 µg/mL. Work on `Nc1c2ncn(CC(O)CO)c2nc[n+]1[O-]` (racemic) yielded an MID of over 400 µg/mL. `Nc1ccn(CC(O)CO)c(=O)n1` (racemic) was tested, and the MID was 400 µg/mL. `O=c1cnn(CC(O)CO)c(=O)[nH]1` (racemic) was tested, and the MID was over 400 µg/mL. For `CCC(=O)OCC(Cn1cnc2c(N)ncnc21)OC(=O)CC` (racemic), the MID was 300 µg/mL. `CCCCCCCCCCCCCCCC(=O)OCC(O)Cn1cnc2c(N)ncnc21` (racemic) showed an MID of over 400 µg/mL. `CC(C)(C)C(=O)OCC(O)Cn1cnc2c(N)ncnc21` (racemic) gave an MID of over 400 µg/mL. `CC(C)(C)C(=O)OCC(Cn1cnc2c(N)ncnc21)OC(=O)C(C)(C)C` (racemic) gave an MID of over 400 µg/mL. In the case of `COC(CO)Cn1cnc2c(N)ncnc21` (racemic), the MID is reported as 300 µg/mL. Compound `COCC(O)Cn1cnc2c(N)ncnc21` (racemic) has an MID of over 400 µg/mL. Work on `COCC(Cn1cnc2c(N)ncnc21)OC` (racemic) yielded an MID of 300 µg/mL. `[N-]=[N+]=NCC(O)Cn1cnc2c(N)ncnc21` (racemic) gave an MID of 200 µg/mL. `[N-]=[N+]=NCC(Cn1cnc2c(N)ncnc21)N=[N+]=[N-]` (racemic) was tested, and the MID was 400 µg/mL. `Nc1ncnc2c1ncn2CC(N)CO` (racemic) gave an MID of 100 µg/mL. For `NCC(O)Cn1cnc2c(N)ncnc21` (racemic), the MID was 200 µg/mL. Work on `NCC(N)Cn1cnc2c(N)ncnc21` (racemic) yielded an MID of over 400 µg/mL. `Nc1ncnc2c1ncn2CC(O)C(O)CO` (racemic) gave an MID of 200 µg/mL. `O=c1ccn(CC(O)C(O)CO)c(=O)[nH]1` (racemic) showed an MID of over 400 µg/mL. For `O=c1ccn(C[C@H](O)[C@H](O)CO)c(=O)[nH]1` (racemic), the MID was over 400 µg/mL. With `O=c1ccn(CCC(O)CCO)c(=O)[nH]1` (racemic) the MID was over 400 µg/mL. `C[C@@H](O)[C@@H](O)Cn1cnc2c(N)ncnc21` (racemic) showed an MID of 100 µg/mL. `CC(O)Cn1cnc2c(N)ncnc21` (racemic) gave an MID of over 400 µg/mL. In the case of `Nc1ncnc2c1nc(Br)n2CC(O)CO` (racemic), the MID is reported as over 200 µg/mL. With `Nc1ncnc2c1ncn2C[C@H](O)CO` [(S)-DHPA] the MID was 7 µg/mL. For `Nc1ccn([C@@H]2O[C@H](CO)[C@@H](O)[C@@H]2O)c(=O)n1` [CYTARABINE], the MID was 10 µg/mL. For `O=c1[nH]c(=O)n([C@H]2C[C@H](O)[C@@H](CO)O2)cc1I` [IDOXURIDINE], the MID was over 400 µg/mL. `Nc1ncnc2c1ncn2[C@@H]1O[C@H](CO)[C@@H](O)[C@@H]1O` [VIDARABINE] gave an MID of 20 µg/mL.
